Laboratory results taken from patent publication US20040068015A1, “Remedies for diseases due to stenotic lesions of blood vessel” (priority 2003, published 2004).

Assays:
smooth muscle cells = settings: literature report; cited from earlier work
[1] = test system: blood vessel smooth muscle cells; assay: Effect to inhibit growth of blood vessel smooth muscle cells (BrdU labeling index), hamster blood vessel stricture model; assay type: in vivo; settings: oral, twice a day, 20 mg/kg/day; 7th day after the injury
Description: (§1) Preparation of Hamster Blood Vessel Stricture Model
(§2) Male hamsters (Gold, SLC, Japan; 40 to 50 g) were allowed to feed on 0.5% cholesterol feed for 4 weeks to increase the LDL value to 4 to 6 times higher than that of normal hamsters. Each hamster was anesthetized with pentobarbital (50 mg/kg), and its carotid inner membrane was peeled using 2FG catheter (Portex) whose tip had been roughly shaved.
(2) Effect to Inhibit Growth of Blood Vessel Smooth Muscle Cells
The drug to be tested, N-hydroxy-5-ethoxymethyloxy-2(S)-methyl-4(S)-(4-phenoxybenzoyl)aminopentaneamide represented by the above formula (II), was orally administered once before the blood vessel inner membrane injury, and then it was orally administered twice a day (20 mg/kg/day). 5-Bromo-2-deoxy-uridine (BrdU: 50 mg/kg) was injected by subcutaneous injection 1, 8, 16 or 24 hours before taking out the inner membrane-injured carotid from each hamster.
After the carotid injury, the injured blood vessels were taken out on the 1st and 7th days to prepare frozen samples. BrdU positive cells were stained with a mouse monoclonal antibody (SIGMA) and then with a peroxidase-conjugated goat anti-mouse IgG antibody and detected with diaminobenzidine (DAB). […] The BrdU labeling index of intermediate membrane and newly formed inner membrane was calculated by the following formula: [formula]

[2] = Toxicity, single oral administration using rats; assay type: in vivo
Description: The toxicity of the compounds of the present invention is very low and therefore, the compounds may be considered safe for pharmaceutical use. For example, the minimal lethal dose by single oral administration of N-hydroxy-5-ethoxymethyloxy-2(S)-methyl-4(S)-(4-phenoxybenzoyl)aminopentanamide using rats was 2000 mg/kg.

[3] = test system: blood vessel smooth muscle cells; assay: Effect to inhibit migration of blood vessel smooth muscle cells (histone H1 (+) cells), hamster blood vessel stricture model; assay type: in vivo; settings: oral, twice a day, 20 mg/kg/day; 3, 5 and 7th days after carotid injury; in comparison with the control group
Description: as §1, §2
(3) Effect to Inhibit Migration of Blood Vessel Smooth Muscle Cells
Administration of the drug to be tested and BrdU was carried out in the same manner in the above (2).
The injured blood vessels were taken out from the hamsters on 3, 5 and 7th days after the carotid injury. Each blood vessel was washed with PBS and put into 0.3% hydrogen peroxide/cold methanol solution. The sample was incubated for 45 minutes in 5% goat serum diluted with 1% BSA-containing PBS to prevent nonselective linkage of protein. This was incubated for 60 minutes in 1% BSA-containing PBS using a histone H1 monoclonal antibody. Thereafter, each section was incubated for 45 minutes using 1% goat anti-mouse IgG antibody diluted with 1% BSA-containing PBS. By measuring the number of histone H1 (+) cells (cells/mm^2), migration of smooth muscle cells from intermediate membrane to inner membrane was evaluated.

CNC(=O)[C@H](Cc1ccccc1)NC(=O)[C@H](CC(C)C)[C@H](CSc1cccs1)C(=O)NO [BB94, 3(S)-(N-hydroxycarbamoyl)-2(R)-isobutyl-4-(2-thienylthio)butynyl-L-phenylalanine methylamide]
growth of smooth muscle cells (smooth muscle cells): inhibits migration and growth of smooth muscle cells dose-dependently
migration of smooth muscle cells (smooth muscle cells): inhibits migration and growth of smooth muscle cells dose-dependently

CNC(=O)[C@H](Cc1c[nH]c2ccccc12)NC(=O)[C@H](CC(=O)NO)CC(C)C [GM6001, 3-(N-hydroxycarbamoyl)-2(S)-isobutylpropionyl-L-tryptophan methylamide]
migration of smooth muscle cells (smooth muscle cells): inhibits migration of smooth muscle cells

CCOCOC[C@H](C[C@H](C)C(=O)NO)NC(=O)c1ccc(Oc2ccccc2)cc1 [formula (II), N-hydroxy-5-ethoxymethyloxy-2(S)-methyl-4(S)-(4-phenoxybenzoyl)aminopentaneamide]
inhibition of growth of blood vessel smooth muscle cells (BrdU labeling index) [1]: significantly inhibited
minimal lethal dose [2]: 2000 mg/kg
number of smooth muscle cells on the surface of inner membrane (migration; histone H1 (+) cells) [3]: significantly reduced
